Converted amounts (≈) assume the structure as drawn.
Columns and labels:
Assay type in all cases: cell-based
[1] = test system: Fusarium moniliforme (Fm); assay: In vitro pathogen growth inhibition assay, Fm; conditions: Fusarium verticillioides; ≥90% inhibition; 48 hours vs 2% DMSO control; read-out: Compound Concentration (ppm) sufficient for ≥90% inhibition of growth, Fm
Experimental: (§1) A growth inhibition assay was conducted to determine the ability of compounds to control the growth of fungal pathogens, such as Botrtyis cinerea (Bc), Collectotrichum graminicola (Cg), Diplodia maydis (Dm), Fusarium moniliforme (Fm), Fusarium virguliforme (Fv), Phytophthora capsici (Pc), Rhizoctonia solani (Rs), and Septoria tritici (St). The compounds listed in Table 1 were each dissolved in DMSO at 2.5 mg/ml to produce compound stock solutions (“stocks”). […] Negative controls on each plate included 2% DMSO, water, and a blank (media+2% DMSO). Fungal spores were isolated from previously sub-cultured plates of Botrtyis cinerea (Bc), Collectotrichum graminicola (Cg), Diplodia maydis (Dm), Fusarium moniliforme (Fm), Fusarium virguliforme (Fv), Phytophthora capsici (Pc), and Septoria tritici (St). The isolated spores were diluted to individual concentrations with a 17% V8 liquid media. For Rhizoctonia solani (Rs), 1.5 mm mycelial plugs were used in place of spores and ¼ Potato Dextrose Broth (PDB) was used for dilution. The spore concentrations and plug sizes were based on growth curves generated at 48 hours for each pathogen. In a second 96-well plate, the spores or mycelial plugs, media, diluted compound solutions, and controls were combined. Once the compound was added, a true final concentration of compound in each well was measured by an OD600 reading, which adjusted for any compound precipitation that might have occurred in the well. Plate readings were repeated at both 24 and 48 hours. The blank negative control was used as a background subtraction. Additional visual ratings were performed at both 24 and 48 hours for checking on precipitation and confirming efficacy. […] Both tables list the concentration of each compound that was sufficient to ≥90% inhibition of growth for each of the fungal pathogens listed above. In addition, some of compounds were tested in a yeast growth inhibition assay for Saccharomyces cerevisiae (Sc). Table 2 lists the concentration of the tested compound that was sufficient to ≥75% inhibition of Saccharomyces cerevisiae (Sc).

[2] = test system: Phytophthora capsici (Pc); assay: In vitro pathogen growth inhibition assay, Pc; conditions: 48 h, ≥90% inhibition, 48 hours vs 2% DMSO control, read-out: Compound Concentration (ppm) sufficient for ≥90% inhibition of growth, Pc
Experimental: as §1

[3] = test system: Rhizoctonia solani (Rs); assay: In vitro pathogen growth inhibition assay, Rs (mycelial plugs); conditions: mycelial plugs; for IC90: Rhizoctonia solani, 48 h, ≥90% inhibition, 48 hours vs 2% DMSO control, read-out: Compound Concentration (ppm) sufficient for ≥90% inhibition of growth, Rs; for Compound Concentration (ppm) sufficient for ≥90% inhibition of Rs: ≥90% growth inhibition, 48 hours, vs 2% DMSO control
Experimental: as §1

[4] = test system: Fusarium virguliforme (Fv); assay: In vitro pathogen growth inhibition assay, Fv; conditions: ≥90% inhibition, 48 hours vs 2% DMSO control, read-out: Compound Concentration (ppm) sufficient for ≥90% inhibition of growth, Fv
Experimental: as §1

[5] = test system: Septoria tritici (St); assay: In vitro pathogen growth inhibition assay, St; conditions: for IC90: Zymoseptoria tritici, 48 h, ≥90% inhibition, 48 hours vs 2% DMSO control, read-out: Compound Concentration (ppm) sufficient for ≥90% inhibition of growth, St; for Compound Concentration (ppm) sufficient for ≥90% inhibition of St: ≥90% growth inhibition, 48 hours, vs 2% DMSO control
Experimental: as §1

[6] = test system: Diplodia maydis (Dm); assay: In vitro pathogen growth inhibition assay, Dm; conditions: Stenocarpella maydis, 48 h, ≥90% inhibition; 48 hours vs 2% DMSO control; read-out: Compound Concentration (ppm) sufficient for ≥90% inhibition of growth, Dm
Experimental: as §1

[7] = test system: Collectotrichum graminicola (Cg); assay: In vitro pathogen growth inhibition assay, Cg; conditions: 48 h, ≥90% inhibition; 48 hours vs 2% DMSO control; read-out: Compound Concentration (ppm) sufficient for ≥90% inhibition of growth, Cg
Experimental: as §1

[8] = test system: Botrtyis cinerea (Bc); assay: In vitro pathogen growth inhibition assay, Bc; conditions: 48 h, ≥90% inhibition; 48 hours vs 2% DMSO control; read-out: Compound Concentration (ppm) sufficient for ≥90% inhibition of growth, Bc
Experimental: as §1

IC90 [1] [µg/mL] | IC90 [2] [µg/mL] | IC90 [3] [µg/mL] | IC90 [4] [µg/mL] | IC90 [5] [µg/mL] | IC90 [6] [µg/mL] | IC90 [7] [µg/mL] | IC90 [8] [µg/mL] | SMILES | Compound Concentration (ppm) sufficient for ≥90% inhibition of Rs [3] [ppm] | Compound Concentration (ppm) sufficient for ≥90% inhibition of St [5] [ppm]
0.08 (≈ 0.131 µM) | > 50 | 0.4 (≈ 0.654 µM) | 0.4 (≈ 0.654 µM) | > 10 | 0.4 (≈ 0.654 µM) | 2 (≈ 3.27 µM) | 0.4 (≈ 0.654 µM) | COc1ccc(F)cc1[C@H](Cn1c(=O)n(C(C)(C)C(=O)N2CCCCC2)c(=O)c2c(C)c(-n3cccn3)sc21)OC(C)C [Compound I-002] |  | 
0.08 (≈ 0.127 µM) | > 50 | 10 (≈ 15.9 µM) | 0.4 (≈ 0.636 µM) | > 10 | ≥ 0.4 | 2 (≈ 3.18 µM) | 0.4 (≈ 0.636 µM) | COc1ccc(F)cc1[C@H](Cn1c(=O)n(C(C)(C)C(=O)NC(C)C)c(=O)c2c(C)c(-c3ncco3)sc21)OC1CCOCC1 [Compound I-015] |  | 
0.08 (≈ 0.131 µM) | > 50 | 0.4 (≈ 0.653 µM) | 0.4 (≈ 0.653 µM) | > 10 | 0.4 (≈ 0.653 µM) | 2 (≈ 3.26 µM) | 0.4 (≈ 0.653 µM) | COc1ccc(F)cc1[C@H](Cn1c(=O)n(C(C)(C)C(=O)N2CCCCC2)c(=O)c2c(C)c(-c3ncco3)sc21)OC(C)C [Compound I-016] |  | 
0.08 (≈ 0.134 µM) | > 50 | 0.4 (≈ 0.668 µM) | 0.4 (≈ 0.668 µM) | > 10 | ≥ 0.08 | 0.08 (≈ 0.134 µM) | 0.4 (≈ 0.668 µM) | COc1ccc(F)cc1[C@H](Cn1c(=O)n(C(C)(C)C(=O)N2CCCC2)c(=O)c2c(C)c(-c3ncco3)sc21)OC(C)C [Compound I-017] |  | 
0.08 (≈ 0.136 µM) | > 50 | 0.08 (≈ 0.136 µM) | 0.4 (≈ 0.682 µM) | > 10 | 0.4 (≈ 0.682 µM) | 0.4 (≈ 0.682 µM) | 0.4 (≈ 0.682 µM) | COc1ccc(F)cc1[C@H](Cn1c(=O)n(C(C)(C)C(=O)NC(C)C)c(=O)c2c(C)c(-c3ncco3)sc21)OC(C)C [Compound I-018] |  | 
0.08 (≈ 0.14 µM) | > 50 | 0.08 (≈ 0.14 µM) | 0.4 (≈ 0.698 µM) | > 10 | ≥ 0.4 | ≥ 0.4 | ≥ 0.4 | CCNC(=O)C(C)(C)n1c(=O)c2c(C)c(-n3nccn3)sc2n(C[C@H](OC(C)C)c2cc(F)ccc2OC)c1=O [Compound I-019] |  | 
0.08 (≈ 0.13 µM) | > 50 | 0.4 (≈ 0.651 µM) | 0.4 (≈ 0.651 µM) | > 10 | 2 (≈ 3.25 µM) | 2 (≈ 3.25 µM) | 0.4 (≈ 0.651 µM) | COc1ccc(F)cc1[C@H](Cn1c(=O)n(C(C)(C)C(=O)N2CCOCC2)c(=O)c2c(C)c(-n3nccn3)sc21)OC(C)C [Compound I-021] |  | 
0.08 (≈ 0.131 µM) | > 50 | 0.08 (≈ 0.131 µM) | ≥ 0.08 | ≥ 2 | 0.08 (≈ 0.131 µM) | 0.08 (≈ 0.131 µM) | 0.08 (≈ 0.131 µM) | COc1ccc(F)cc1[C@H](Cn1c(=O)n(C(C)(C)C(=O)N2CCCCC2)c(=O)c2c(C)c(-n3nccn3)sc21)OC(C)C [Compound I-022] |  | 
0.08 (≈ 0.134 µM) | > 50 | 0.08 (≈ 0.134 µM) | ≥ 0.08 | > 10 | 0.08 (≈ 0.134 µM) | 0.08 (≈ 0.134 µM) | 0.4 (≈ 0.668 µM) | COc1ccc(F)cc1[C@H](Cn1c(=O)n(C(C)(C)C(=O)N2CCCC2)c(=O)c2c(C)c(-n3nccn3)sc21)OC(C)C [Compound I-023] |  | 
0.08 (≈ 0.125 µM) | > 50 | 0.4 (≈ 0.624 µM) | 2 (≈ 3.12 µM) | > 50 | ≥ 2 | 2 (≈ 3.12 µM) | 0.4 (≈ 0.624 µM) | COc1ccc(F)cc1[C@H](Cn1c(=O)n(C(C)(C)C(=O)NC(C)C)c(=O)c2c(C)c(-c3ncco3)sc21)OC1CCC(=O)CC1 [Compound I-024] |  | 
0.08 (≈ 0.136 µM) | > 50 | 0.4 (≈ 0.682 µM) | 0.4 (≈ 0.682 µM) | > 10 | 0.4 (≈ 0.682 µM) | 0.4 (≈ 0.682 µM) | 0.4 (≈ 0.682 µM) | CCNC(=O)C(C)(C)n1c(=O)c2c(C)c(-n3nccn3)sc2n(C[C@H](OCC(C)C)c2cc(F)ccc2OC)c1=O [Compound I-025] |  | 
0.08 (≈ 0.133 µM) | > 50 | 0.4 (≈ 0.666 µM) | 0.4 (≈ 0.666 µM) | ≥ 2 | 0.08 (≈ 0.133 µM) | 0.08 (≈ 0.133 µM) | 0.4 (≈ 0.666 µM) | COc1ccc(F)cc1[C@H](Cn1c(=O)n(C(C)(C)C(=O)NC(C)C)c(=O)c2c(C)c(-n3nccn3)sc21)OCC(C)C [Compound I-026] |  | 
0.08 (≈ 0.128 µM) | > 50 | 0.4 (≈ 0.638 µM) | 2 (≈ 3.19 µM) | > 10 | 0.4 (≈ 0.638 µM) | 0.4 (≈ 0.638 µM) | 0.4 (≈ 0.638 µM) | COc1ccc(F)cc1[C@H](Cn1c(=O)n(C(C)(C)C(=O)N2CCCCC2)c(=O)c2c(C)c(-n3nccn3)sc21)OCC(C)C [Compound I-027] |  | 
0.08 (≈ 0.131 µM) | > 50 | 0.08 (≈ 0.131 µM) | 0.4 (≈ 0.653 µM) | ≥ 2 | ≥ 0.08 | 0.08 (≈ 0.131 µM) | 0.4 (≈ 0.653 µM) | COc1ccc(F)cc1[C@H](Cn1c(=O)n(C(C)(C)C(=O)N2CCCC2)c(=O)c2c(C)c(-n3nccn3)sc21)OCC(C)C [Compound I-028] |  | 
0.08 (≈ 0.131 µM) | 50 (≈ 81.9 µM) | 0.4 (≈ 0.655 µM) | 0.4 (≈ 0.655 µM) | > 10 | ≥ 2 | ≥ 2 | 0.4 (≈ 0.655 µM) | COc1ccccc1[C@H](Cn1c(=O)n(C(C)(C)C(=O)NC(C)C)c(=O)c2c(C)c(-n3nccn3)sc21)OC1CCOCC1 [Compound I-029] |  | 
0.08 (≈ 0.141 µM) | > 50 | 10 (≈ 17.6 µM) | 10 (≈ 17.6 µM) | > 50 | 10 (≈ 17.6 µM) | 10 (≈ 17.6 µM) | 2 (≈ 3.52 µM) | COc1ccccc1[C@H](Cn1c(=O)n(C(C)(C)C(N)=O)c(=O)c2c(C)c(-n3nccn3)sc21)OC1CCOCC1 [Compound I-031] |  | 
0.08 (≈ 0.134 µM) | > 50 | 10 (≈ 16.8 µM) | 10 (≈ 16.8 µM) | > 50 | 10 (≈ 16.8 µM) | ≥ 2 | 0.4 (≈ 0.67 µM) | CCNC(=O)C(C)(C)n1c(=O)c2c(C)c(-n3nccn3)sc2n(C[C@H](OC2CCOCC2)c2ccccc2OC)c1=O [Compound I-032] |  | 
0.08 (≈ 0.126 µM) | > 50 | 0.08 (≈ 0.126 µM) | 0.4 (≈ 0.628 µM) | > 10 | ≥ 0.4 | ≥ 0.4 | 0.4 (≈ 0.628 µM) | COc1ccccc1[C@H](Cn1c(=O)n(C(C)(C)C(=O)N2CCCCC2)c(=O)c2c(C)c(-n3nccn3)sc21)OC1CCOCC1 [Compound I-033] |  | 
0.08 (≈ 0.122 µM) | > 50 | 0.08 (≈ 0.122 µM) | 0.4 (≈ 0.611 µM) | ≥ 2 | ≥ 0.08 | 0.08 (≈ 0.122 µM) | 0.4 (≈ 0.611 µM) | COc1ccc(F)cc1[C@H](Cn1c(=O)n(C(C)(C)C(=O)N2CCCCC2)c(=O)c2c(C)c(-n3nccn3)sc21)OC1CCOCC1 [Compound I-036] |  | 
0.08 (≈ 0.125 µM) | 10 (≈ 15.6 µM) | 0.08 (≈ 0.125 µM) | 0.4 (≈ 0.624 µM) | ≥ 2 | ≥ 0.08 | ≥ 0.08 | ≥ 0.4 | COc1ccc(F)cc1[C@H](Cn1c(=O)n(C(C)(C)C(=O)N2CCCC2)c(=O)c2c(C)c(-n3nccn3)sc21)OC1CCOCC1 [Compound I-037] |  | 
 |  |  |  |  |  |  |  | CCOC(=O)c1sc2c(c1C)c(=O)n(C(C)(C)C(=O)NC(C)C)c(=O)n2C[C@H](OCCC#N)c1cc(F)ccc1OC [Compound I-300] | 0.08 | >50
 |  |  |  |  |  |  |  | CCOC(=O)c1sc2c(c1C)c(=O)n([C@H](C)C(=O)NC(C)C)c(=O)n2C[C@H](OCCC#N)c1cc(F)ccc1OC [Compound I-330] | 2 | >50
